Measured values published in US9822099B2, “Triazole derivatives” (priority 2013, dated 2017).
Like-named read-outs stand apart in the source and are kept apart here. Marks after values point to notes of the source that are not given here.

How the values were obtained:
Uromyces appendiculatus = experiment: Example F: in vivo preventive test on Uromyces appendiculatus (bean rust); conditions: bean plants, preventive spray, evaluated 11 days after inoculation
Experimental: The young plants of bean are treated by spraying the active ingredient prepared as described above. Control plants are treated only with an aqueous solution of acetone/Dimethyl sulfoxide/Tween®. After 24 hours, the plants are contaminated by spraying the leaves with an aqueous suspension of Uromyces appendiculatus spores.

Septoria tritici = experiment: Example D: in vivo preventive test on Septoria tritici (leaf spot on wheat); conditions: wheat plants, preventive spray, evaluated 24 days after inoculation
Experimental: The young plants of wheat are treated by spraying the active ingredient prepared as described above. Control plants are treated only with an aqueous solution of acetone/Dimethyl sulfoxide/Tween®. After 24 hours, the plants are contaminated by spraying the leaves with an aqueous suspension of Septoria tritici spores.

Sphaerotheca fuliginea = experiment: Example E: in vivo preventive test on Sphaerotheca fuliginea (powdery mildew on cucurbits); conditions: gherkin plants, preventive spray, evaluated 15 days after inoculation
Experimental: The young plants of gherkin are treated by spraying the active ingredient prepared as described above. Control plants are treated only with an aqueous solution of acetone/Dimethyl sulfoxide/Tween®. After 24 hours, the plants are contaminated by spraying the leaves with an aqueous suspension of Sphaerotheca fuliginea spores.

Puccinia recondita = experiment: Example B: in vivo preventive test on Puccinia recondita (brown rust on wheat); conditions: wheat plants, preventive spray, evaluated 11 days after inoculation
Experimental: The young plants of wheat are treated by spraying the active ingredient prepared as described above. Control plants are treated only with an aqueous solution of acetone/Dimethyl sulfoxide/Tween®. After 24 hours, the plants are contaminated by spraying the leaves with an aqueous suspension of Puccinia recondita spores.

Pyrenophora teres = experiment: Example C: in vivo preventive test on Pyrenophora teres (net blotch on barley); conditions: barley plants, preventive spray, evaluated 14 days after inoculation
Experimental: The young plants of barley are treated by spraying the active ingredient prepared as described above. Control plants are treated only with an aqueous solution of acetone/Dimethyl sulfoxide/Tween®. After 24 hours, the plants are contaminated by spraying the leaves with an aqueous suspension of Pyrenophora teres spores.

Botrytis cinerea = experiment: Example A: in vivo preventive test on Botrytis cinerea (grey mould); conditions: gherkin plants, preventive spray, evaluated 4 to 5 days after inoculation
Experimental: The young plants of gherkin are treated by spraying the active ingredient prepared as described above. Control plants are treated only with an aqueous solution of acetone/Dimethyl sulfoxide/Tween®. After 24 hours, the plants are contaminated by spraying the leaves with an aqueous suspension of Botrytis cinerea spores.

Compound | Eff. % (Uromyces appendiculatus; 500 ppm of active ingredient) [%] | Eff. % (Septoria tritici; 500 ppm of active ingredient) [%] | Eff. % (Sphaerotheca fuliginea; 500 ppm of active ingredient) [%] | LogP (pH 2.7) | Eff. % (Puccinia recondita; 500 ppm of active ingredient) [%] | Eff. % (Uromyces appendiculatus; 100 ppm of active ingredient) [%] | Eff. % (Sphaerotheca fuliginea; 100 ppm of active ingredient) [%] | also measured
OC(Cc1ccccc1F)(Cc1cc(F)ncc1Cl)Cn1cncn1 (racemic) [Example I-64] | 94 | 97 | 100 | 2.46^[a] | 83 | – | – | –
OC(CCc1ccccc1Cl)(Cc1ccncc1Cl)Cn1cncn1 (racemic) [Example I-68] | 100 | 100 | 100 | 2.29^[a] | 94 | – | – | Eff. % (Pyrenophora teres; 500 ppm of active ingredient): 71%
COc1nccnc1CC(O)(Cn1cncn1)C1(Cl)CC1 (racemic) [Example I-72] | 100 | 80 | 98 | 1.88^[a] | – | – | – | –
OC(Cc1ccc(F)cc1)(Cc1ccncc1Cl)Cn1cncn1 (racemic) [Example I-75] | – | 100 | 100 | 1.93^[a] | 81 | – | – | –
OC(COc1ccc(F)cc1)(Cc1ccncc1Cl)Cn1cncn1 (racemic) [Example I-79] | 100 | 100 | 100 | 1.86^[a] | 98 | – | – | Eff. % (Botrytis cinerea; 500 ppm of active ingredient): 99%
OC(Cc1ccncc1Cl)(Cn1cncn1)c1ccc2oc3ccccc3c2c1 (racemic) [Example I-80] | 99 | 100 | 100 | – | 88 | – | – | LogP (method [a]: LC-MS at pH 2.7, 0.1% formic acid in water / acetonitrile gradient): 2.40^[a]
Cc1cccc2cc(CC(O)(Cn3cncn3)C3(Cl)CC3)c(Cl)nc12 (racemic) [Example I-84] | 100 | – | – | 3.53^[a] | 88 | – | – | Eff. % (Septoria tritici; 100 ppm of active ingredient): 81%
OC(Cc1ccccc1F)(Cc1ccnc(Cl)c1F)Cn1cncn1 (racemic) [Example I-85] | – | 78 | 89 | 1.73^[a] | – | – | – | –
OC(Cc1ccnc(Cl)c1F)(Cn1cncn1)C1(F)CC1 (racemic) [Example I-87] | 78 | 83 | 72 | 1.23^[a] | 89 | – | – | –
OC(Cc1cccc(Cl)c1)(Cc1ccnc(Cl)c1F)Cn1cncn1 (racemic) [Example I-88] | – | 100 | 98 | 2.02^[a] | 89 | – | – | –
CC(C)(CCl)C(O)(Cc1ccncc1Cl)Cn1cncn1 (racemic) [Example I-90] | – | 78 | 100 | 1.76^[a] | – | – | – | Eff. % (Botrytis cinerea; 500 ppm of active ingredient): 100%; LogP (pH 7.8): 1.96^[b];
CC(C)(Oc1ccc(F)cc1)C(O)(Cc1ccncc1Cl)Cn1cncn1 (racemic) [Example I-91] | 97 | 100 | 98 | 2.48^[a] | 89 | – | – | Eff. % (Botrytis cinerea; 500 ppm of active ingredient): 95%; LogP (pH 7.8): 2.60^[b];
OC(Cc1ccc2ccccc2n1)(Cn1cncn1)C1(Cl)CC1 (stereo not shown) [Example I-1] | – | – | – | 1.64^[a] | – | 80 | – | Eff. % (Pyrenophora teres; 100 ppm of active ingredient): 83%
OC(Cc1ncccc1Cl)(Cn1cncn1)C1(Cl)CC1 (stereo not shown) [Example I-2] | 100 | 100 | 95 | 2.28^[a] | 94 | – | – | Eff. % (Botrytis cinerea; 500 ppm of active ingredient): 94%
OC(Cc1cnccn1)(Cn1cncn1)C1(Cl)CC1 (stereo not shown) [Example I-11] | – | – | – | 1.13^[a] | – | 75 | 79 | –
OC(Cc1ccccc1F)(Cc1ccncc1Cl)Cn1cncn1 (stereo not shown) [Example I-12] | – | – | – | 1.96^[a] | – | – | 100 | Eff. % (Septoria tritici; 100 ppm of active ingredient): 88%

Compound | Eff. % (Uromyces appendiculatus; 500 ppm of active ingredient) [%] | Eff. % (Septoria tritici; 500 ppm of active ingredient) [%] | Eff. % (Sphaerotheca fuliginea; 500 ppm of active ingredient) [%] | LogP (pH 2.7) | Eff. % (Puccinia recondita; 500 ppm of active ingredient) [%] | Eff. % (Uromyces appendiculatus; 100 ppm of active ingredient) [%] | Eff. % (Sphaerotheca fuliginea; 100 ppm of active ingredient) [%] | also measured
OC(Cc1ccncc1Cl)(Cn1cncn1)c1ccc(Cl)nc1 (stereo not shown) [Example I-13] | – | – | – | 1.26^[a] | – | 95 | 94 | –
OC(Cc1ccncc1Cl)(Cn1cncn1)c1cccnc1Cl (stereo not shown) [Example I-14] | – | – | – | 1.23^[a] | – | 87 | 100 | –
OC(Cc1cccc(Cl)c1)(Cc1ccncc1Cl)Cn1cncn1 (stereo not shown) [Example I-15] | – | – | – | 2.27^[a] | – | – | 98 | Eff. % (Septoria tritici; 100 ppm of active ingredient): 94%
CC(Oc1ccc(Cl)cc1)C(O)(Cc1cccnc1Cl)Cn1cncn1 (stereo not shown) [Example I-16] | – | – | – | – | – | 91 | 100 | Eff. % (Botrytis cinerea; 100 ppm of active ingredient): 87%; Eff. % (Septoria tritici; 100 ppm of active ingredient): 98%; Eff. % (Puccinia recondita; 100 ppm of active ingredient): 75%
OC(Cc1cc(Cl)cc(Cl)n1)(Cn1cncn1)C1(Cl)CC1 (stereo not shown) [Example I-17] | – | – | – | 2.76^[a] | – | 94 | 100 | Eff. % (Septoria tritici; 100 ppm of active ingredient): 97%
OC(Cc1ccncc1F)(Cn1cncn1)c1cccnc1Cl (stereo not shown) [Example I-23] | – | – | – | 0.91^[a] | – | 92 | 88 | –
OC(Cc1ccncc1F)(Cn1cncn1)c1ccc(Cl)nc1 (stereo not shown) [Example I-24] | – | – | – | 0.99^[a] | – | 92 | 94 | –
OC(Cc1cc(Cl)nc(Cl)c1)(Cn1cncn1)C1(Cl)CC1 (stereo not shown) [Example I-26] | – | – | – | 2.54^[a] | – | – | 100 | Eff. % (Septoria tritici; 100 ppm of active ingredient): 97%
OC(Cc1cc(Cc2ccc(Cl)c(Cl)n2)cc(Cl)n1)(Cn1cncn1)C1(Cl)CC1 (stereo not shown) [Example I-32] | – | – | – | 3.58^[a] | – | – | – | Eff. % (Puccinia recondita; 100 ppm of active ingredient): 75%
OC(Cc1cc(Cl)ncc1F)(Cn1cncn1)C1(F)CC1 (stereo not shown) [Example I-41] | – | – | – | 1.66^[a] | – | 94 | 100 | –
CC(CF)(CF)C(O)(Cc1cc(Cl)ncc1F)Cn1cncn1 (stereo not shown) [Example I-44] | – | – | – | 1.89^[a] | – | 94 | 100 | –
Cc1cccc(CC(O)(Cn2cncn2)C2(Cl)CC2)n1 (stereo not shown) [Example I-48] | 81 | – | 83 | 0.52^[a] | – | – | – | –
OC(Cc1cc(Oc2ccc(Cl)cc2)nnc1Cl)(Cn1cncn1)C1(Cl)CC1 (stereo not shown) [Example I-55] | 98 | 100 | 100 | 3.08^[a] | 79 | – | – | –
OC(Cc1cncc(Oc2ccc(Cl)cc2)n1)(Cn1cncn1)C1(Cl)CC1 (stereo not shown) [Example I-56] | 96 | 92 | 100 | 2.88^[a] | 86 | – | – | Eff. % (Pyrenophora teres; 500 ppm of active ingredient): 88%
OC(Cc1ccnc(Cl)c1F)(Cn1cncn1)c1cccnc1Cl (stereo not shown) [Example I-59] | 100 | 100 | 100 | 1.54^[a] | 98 | – | – | –
